# Data as given in patent US10526345B2, “Compounds as GPR119 agonists” (Mankind Pharma Ltd., priority 2016, dated 2020).
# Columns and labels:
# Male C57BL/6 mice = assay: Oral glucose tolerance test in C57BL/6 mice; format: in vivo; details: 3 mpk and 10 mpk, glucose 2 g/kg
# Method: Male C57BL/6 mice (8-10 weeks) were grouped based on basal glucose levels and animals were fasted for 16 hours. Glucose level of each animal was estimated in blood collected from tail vein before animals were dosed orally with 0.5% Tween 80 and 0.5% NaCMC (vehicle control) and compounds at 3 and 10 mpk (n=5). After 30 minutes of compound dosing, blood glucose was again estimated and 2 g/kg/10 ml (20%) of Glucose solution was administered orally to all the animals. Blood glucose was estimated at 15, 30, 60, 90 and 120 minutes time points after glucose administration. Accu-Check active blood glucose meter was utilised for estimation of blood from tail vein.
# Glucose reduction observed in animals treated with compounds of present invention is represented in terms of % AUC reduction. A greater glucose reduction in oral glucose tolerance test indicates the compound's efficacy in this rodent species.
# hGPR119 = molecular target: T1, hGPR119 (Homo sapiens, UniProt Q8TDV5); assay: In vitro cyclic AMP assay (Cisbio dynamic 2 HTRF kit) in CHO-hGPR119 cells; format: cell-based; details: cAMP; for activation at 1 µM: 1 h, compound at 1 μM, 60 min, read-out: Induction (% induction at 1 μM)
# T1 construct: expressed in transfected cells; host or cells: CHO
# T1 sequence (Q8TDV5 1-335): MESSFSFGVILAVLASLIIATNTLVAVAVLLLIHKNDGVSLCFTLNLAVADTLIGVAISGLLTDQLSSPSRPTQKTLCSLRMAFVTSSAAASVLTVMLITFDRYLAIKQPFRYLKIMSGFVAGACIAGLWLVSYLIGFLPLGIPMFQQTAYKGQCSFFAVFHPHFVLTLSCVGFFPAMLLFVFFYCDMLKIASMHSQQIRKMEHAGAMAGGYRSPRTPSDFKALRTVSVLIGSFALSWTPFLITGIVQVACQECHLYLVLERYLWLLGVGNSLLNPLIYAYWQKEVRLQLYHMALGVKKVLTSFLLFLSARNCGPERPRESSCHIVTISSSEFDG
SMILES,glucose reduction (% AUC reduction) in oral glucose tolerance test (Male C57BL/6 mice),activation at 1 µM (hGPR119),EC50 (hGPR119)
"CCc1cnc(N2CCC([C@H](C)Oc3nc4ccc(-c5ccnc(F)c5)nc4s3)CC2)nc1 [Compound 1104, (S)-2-(1-(1-(5-ethylpyrimidin-2-yl)piperidin-4-yl)ethoxy)-5-(2-fluoropyridin-4-yl)thiazolo[5,4-b]pyridine]",significant dose dependent glucose reduction,84%,25 to 50 nM
"CC(Oc1nc2ccc(-c3ccc(S(C)(=O)=O)cc3)nc2s1)C1CCN(c2ncc(Cl)cn2)CC1 (centres unmarked) [Compound 1120, 2-(1-(1-(5-chloropyrimidin-2-yl)piperidin-4-yl)ethoxy)-5-(4-(methylsulfonyl)phenyl)thiazolo[5,4-b]pyridine]",significant dose dependent glucose reduction,40%,–
"CCc1noc(N2CCC([C@H](C)Oc3nc4ccc(-c5ccc(S(C)(=O)=O)nc5)nc4s3)CC2)n1 [Compound 1160, 2-((S)-1-(1-(3-ethyl-1,2,4-oxadiazol-5-yl)piperidin-4-yl)ethoxy)-5-(6-(methylsulfonyl)pyridin-3-yl)thiazolo[5,4-b]pyridine]",–,76%,25 to 50 nM
"CC(C)c1noc(N2CCC(C(C)Oc3nc4ccc(-c5ccc(S(C)(=O)=O)cn5)nc4s3)CC2)n1 (centres unmarked) [Compound 1161, 2-(1-(1-(3-isopropyl-1,2,4-oxadiazol-5-yl)piperidin-4-yl)ethoxy)-5-(5-(methylsulfonyl)pyridin-2-yl)thiazolo[5,4-b]pyridine]",–,69%,–
"CC(C)c1noc(N2CCC(C(C)Oc3nc4cnc(-c5ccc(S(C)(=O)=O)nc5)nc4s3)CC2)n1 (centres unmarked) [Compound 1162, 2-(1-(1-(3-isopropyl-1,2,4-oxadiazol-5-yl)piperidin-4-yl)ethoxy)-5-(6-(methylsulfonyl)pyridin-3-yl)thiazolo[5,4-d]pyrimidine]",–,62%,–
"COCc1cnc(N2CCC(C(C)Oc3nc4ccc(-c5ccc(S(C)(=O)=O)nc5)nc4s3)CC2)nc1 (centres unmarked) [Compound 1163, 2-(1-(1-(5-(methoxymethyl)pyrimidin-2-yl)piperidin-4-yl)ethoxy)-5-(6-(methylsulfonyl)pyridin-3-yl)thiazolo[5,4-b]pyridine]",–,63%,–
"COCc1cnc(N2CCC([C@@H](C)Oc3nc4ccc(-c5ccc(S(C)(=O)=O)nc5)nc4s3)CC2)nc1 [Compound 1165, 2-((R)-1-(1-(5-(methoxymethyl)pyrimidin-2-yl)piperidin-4-yl)ethoxy)-5-(6-(methylsulfonyl)pyridin-3-yl)thiazolo[5,4-b]pyridine]",–,70%,–
"C[C@H](Oc1nc2ccc(-c3ccc(S(C)(=O)=O)nc3)nc2s1)C1CCN(c2ncc(C(F)(F)F)cn2)CC1 [Compound 1166, 2-((S)-1-(1-(5-(trifluoromethyl)pyrimidin-2-yl)piperidin-4-yl)ethoxy)-5-(6-(methylsulfonyl)pyridin-3-yl)thiazolo[5,4-b]pyridine]",–,70%,–
"CC(C)c1noc(N2CCC([C@H](C)Oc3nc4ccc(-c5ccc(S(C)(=O)=O)nc5F)nc4s3)CC2)n1 [Compound 1167, 2-((S)-1-(1-(3-isopropyl-1,2,4-oxadiazol-5-yl)piperidin-4-yl)ethoxy)-5-(2-fluoro-6-(methylsulfonyl)pyridin-3-yl)thiazolo[5,4-b]pyridine]",–,20%,–
"Cc1cc(S(C)(=O)=O)ccc1-c1ccc2nc(O[C@H](C)C3CCN(c4nc(C(C)C)no4)CC3)sc2n1 [Compound 1169, 2-((R)-1-(1-(3-isopropyl-1,2,4-oxadiazol-5-yl)piperidin-4-yl)ethoxy)-5-(2-methyl-4-(methylsulfonyl)phenyl)thiazolo[5,4-b]pyridine]",–,43%,–
